Broadly, the IC50 is the concentration needed to halve the response being measured. Lower therefore signals inhibition by little substance.

One assay has as its system caspase-9. As to the kind of experiment: Caspase-9 ELISA in HCT-15 cells. The format is cell-based, human. Here is the method: (§1) To measure caspase-8 and caspase-9 levels, DRG® Caspase-8 (human) (EIA-4863) ELISA and DRG® Caspase-9 (human) (EIA-4860) ELISA kits were used. Briefly, prepare cell extracts after induction of apoptosis. Resuspend the extracts in lysis buffer, incubate 60 min at room temperature, and centrifuge for 15 min. Wash the microwell strips with 400 µl wash buffer. Add 100 µl of sample diluent in duplicate to all standard wells. Add 100 µl of sample diluent in duplicate to the blank wells. Add 50 µl of sample diluent to the sample wells. Add 50 µl of each sample in duplicate to the sample wells. Add 50 µl of detection antibody to all wells and incubate at room temperature for 2 h. Add 100 µl of diluted anti-rabbit-IgG-HRP to all wells, including the blank wells. Pipette 100 µl of (3,3′,5,5′-Tetramethylbenzidine) TMB substrate solution to all wells and incubate at room temperature for about 15 min. Stop the enzyme reaction by pipetting 100 µl of stop solution into each well. Read absorbance of each microwell on a spectro-photometer using 450 nm. Determine the absorbance of both the samples and the standards.
(§2) The activation of caspases as caspase-3, caspase-8, and caspase-9 is responsible for apoptosis, particularly caspase-3 which is an effector caspase that has an important role in apoptosis. It is activated by one of the initiator caspases which results in the activation of certain enzymes responsible for the fragmentation of DNA[53]. Caspase-8 and -9 are initiator caspases that are responsible for caspase-3 activation.
On the technique in general: An ELISA detects its analyte on a solid surface through an enzyme-linked reagent.

In the next assay the target is T1, VEGFR-2 (KDR) (Homo sapiens, UniProt P35968).
T1 construct: purchased 40325
T1 sequence (P35968 20-1356): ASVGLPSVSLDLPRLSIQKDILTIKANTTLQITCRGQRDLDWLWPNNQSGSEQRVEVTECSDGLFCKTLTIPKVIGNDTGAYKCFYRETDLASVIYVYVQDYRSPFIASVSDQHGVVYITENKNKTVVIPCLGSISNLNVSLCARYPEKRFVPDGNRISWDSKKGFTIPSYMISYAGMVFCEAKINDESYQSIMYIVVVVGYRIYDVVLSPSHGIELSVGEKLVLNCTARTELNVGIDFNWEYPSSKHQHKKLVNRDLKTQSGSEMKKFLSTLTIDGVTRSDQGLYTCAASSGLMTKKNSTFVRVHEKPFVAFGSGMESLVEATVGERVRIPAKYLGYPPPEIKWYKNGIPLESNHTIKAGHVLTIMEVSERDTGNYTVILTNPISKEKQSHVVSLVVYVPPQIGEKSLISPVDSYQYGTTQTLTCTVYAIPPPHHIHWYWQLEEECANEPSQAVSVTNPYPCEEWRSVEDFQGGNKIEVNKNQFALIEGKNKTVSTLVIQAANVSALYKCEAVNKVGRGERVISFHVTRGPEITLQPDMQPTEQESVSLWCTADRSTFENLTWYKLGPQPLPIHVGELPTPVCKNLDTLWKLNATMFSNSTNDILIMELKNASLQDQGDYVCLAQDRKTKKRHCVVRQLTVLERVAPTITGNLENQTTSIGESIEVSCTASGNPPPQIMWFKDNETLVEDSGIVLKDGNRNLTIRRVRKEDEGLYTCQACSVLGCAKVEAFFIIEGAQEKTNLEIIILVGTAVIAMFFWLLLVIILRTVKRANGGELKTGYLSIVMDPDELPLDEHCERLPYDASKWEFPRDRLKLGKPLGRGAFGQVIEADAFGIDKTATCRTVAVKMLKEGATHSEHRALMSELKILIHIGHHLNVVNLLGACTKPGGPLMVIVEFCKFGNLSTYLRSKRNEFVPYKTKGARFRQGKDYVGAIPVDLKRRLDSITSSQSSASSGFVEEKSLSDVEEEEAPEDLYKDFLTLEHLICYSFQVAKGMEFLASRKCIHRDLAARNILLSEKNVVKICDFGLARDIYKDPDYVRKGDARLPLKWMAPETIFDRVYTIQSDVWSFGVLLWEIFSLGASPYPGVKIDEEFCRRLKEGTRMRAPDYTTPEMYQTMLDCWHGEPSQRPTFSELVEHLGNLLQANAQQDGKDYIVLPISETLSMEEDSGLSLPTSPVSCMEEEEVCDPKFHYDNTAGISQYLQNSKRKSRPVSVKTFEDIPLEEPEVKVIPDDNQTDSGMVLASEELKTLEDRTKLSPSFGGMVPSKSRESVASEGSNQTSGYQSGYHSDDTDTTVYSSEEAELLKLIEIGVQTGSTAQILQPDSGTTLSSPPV
As to the kind of experiment: VEGFR-2 (KDR) Kinase Assay Kit (Kinase-Glo Max luminescence). It counts as biochemical. The conditions noted are these: mean ± SD of three experiments. A general note: Kinase-Glo reads ATP consumption through a luciferase reaction.

The next assay relates to caspase-8. As to the kind of experiment: Caspase-8 ELISA in HCT-15 cells. The format is cell-based, human. How it is done: as §1, §2
In assay [1] the test system is HCT-15 cells. As to the kind of experiment: Annexin V-FITC/PI apoptosis assay. The format is cell-based, human. Here is the method: Apoptosis was determined by staining the cells with Annexin V fluorescein isothiocyanate (FITC) and counterstaining with PI using the Annexin V-FITC/PI apoptosis detection kit (BD Biosciences, San Diego, CA) according to the manufacturer’s instructions. […] The cells then were collected by trypsinization and 0.5 × 10^6 cells were washed twice with PBS and stained with 5 µl Annexin V-FITC and 5 µl PI in 1 × binding buffer for 15 min at room temperature in the dark. Analyses were performed using FACS Calibur flow cytometer (BD Biosciences, San Jose, CA).
This clearly verifies that, cell death resulting from the antiproliferative action of the target tolmetin derivative 5b was attributable to physiological apoptosis.

For a further assay, the system named is HUVECs. The assay is described as follows: Wound healing assay (CytoSelect 24-well). It counts as cell-based, human. The conditions noted are these: 72 h, 5b 2.4 µM, sunitinib 3.2 µM, control 97.03 ± 5.47. How it is done:
Wound healing assay of compound 5b was evaluated using CytoSelect™ 24-Well Wound Healing Assay kit Catalog # CBA-120 according to manufacturer’s instructions. In brief, the 24-well plate wound healing inserts were allowed to warm up at room temperature for 10 minutes, then to each well, 500 µl of human umbilical vascular endothelial cells (HUVECs) suspension (1.0 × 10^6) in media containing 10% fetal bovine serum (FBS) was added. Cells were kept in a cell culture incubator until a monolayer form. Carefully the insert was removed from the well. The media were slowly aspirated and discarded from the wells. The wells were washed with media to remove dead cells and debris. Finally, the media were added to wells to keep cells hydrated, then wells were visualized under a light microscope. […] The percent closure of the cells into the wound field was measured.
One of the hallmarks of angiogenesis is cell migration, which happens in the earlier stages of the angiogenic cascade. A wound-healing assay was performed to investigate in vitro anti-angiogenic property of compound 5b.

The subject of a further assay is caspase-3. As to the kind of experiment: Caspase-3 (active) ELISA in HCT-15 cells. The format is cell-based, human. How it is done: The level of the apoptotic marker caspase-3 was assessed using Human Caspase-3 (active) ELISA Kit Catalog # KHO1091. The procedure of the used kit was done according to the manufacturer’s instructions. Allow all reagents to reach room temperature before use. Gently mix all liquid reagents prior to use. Add 100 µl of the standard diluent buffer to the zero standard wells. Add 100 µl of standards and controls or diluted samples to the appropriate microtiter wells. Incubate for 2 h at room temperature. […] Incubate for 1 h at room temperature. Add 100 µl anti-rabbit IgG HRP working solution to each well. Prepare the working dilution and incubate for 30 min at room temperature. Add 100 µl of stabilised chromogen to each well. The liquid in the wells will begin to turn blue. Incubate for 30 min at room temperature and in the dark. Add 100 µl of stop solution to each well. The solution in the wells should change from blue to yellow. Read the absorbance of each well at 450 nm. Read the plate within 2 h after adding the stop solution. Use a curve fitting software to generate the standard curve. Read the concentrations for unknown samples and controls from the standard curve.
as §2

The subject of assay [2] is HCT-15 cells. The assay is described as follows: Cell cycle analysis by flow cytometry (PI). The format is cell-based, human. Here is the method:
After treatment, the cells were washed twice with ice-cold phosphate buffer saline (PBS), collected by centrifugation, and fixed in ice-cold 70% (v/v) ethanol, washed with PBS, resuspended with 0.1 mg/ml RNase, stained with […] propidium iodide (PI), and analysed by flow cytometry using FACS Calibur (Becton Dickinson)[45]. The cell cycle distributions were calculated using Cell- Quest software (Becton Dickinson).
Anticancer agents exert their cytotoxic action by aborting cellular proliferation at certain checkpoints. These checkpoints are distinguishable phases in the cell cycle, whose suppression results in the termination of the cell proliferation. Cell cycle analysis employs flow cytometry to distinguish cells within the different cell cycle phases. […] Moreover, marked augmentation in the proportion of cells in the G0-G1 phase by 1.32-fold, and in the Sub-G1 phase by 18.7-fold, in comparison to the control (DMSO).
On the technique in general: A flow cytometer gives signals particle by particle.

Molecules are shown by their SMILES.

Protocol for VEGFR-2 (KDR): In brief, the master mixture (25 µl per well) was prepared and added to each well. 5 µl of inhibitor solution of each well labelled as “Test Inhibitor” was added. For the “Positive Control” and “Blank,” 5 µl of the same solution without inhibitor (Inhibitor buffer) was added. 3 ml of kinase buffer was prepared by mixing 600 µl of kinase buffer with 2400 µl water. To the wells designated as “Blank,” 20 µl of kinase buffer was added. The amount of VEGFR-2 required for the assay was calculated and the enzyme was diluted to 1 ng/µl with kinase buffer. The reaction was initiated by adding 20 µl of diluted VEGFR-2 enzyme to the wells designated “Positive Control” and “Test Inhibitor Control.” The mixtures were incubated at 30 °C for 45 min. After the 45 min, 50 µl of Kinase-Glo Max reagent was added to each well. The plate was incubated at room temperature for 15 min. Luminescence was measured using the microplate reader.

In the assay with caspase-9 (mean ± SD of three experiments, control 3.225 ± 0.44), `Cc1ccc(C(=O)c2ccc(CC(=O)NN=Cc3cccc(O)c3O)n2C)cc1` [Compound 5b, N′-(2,3-Dihydroxybenzylidene)-2–(1-methyl-5–(4-methylbenzoyl)-1H-pyrrol-2-yl) acetohydrazide] came in with a Caspase-9 of 24.58 ± 0.82 ng/mL. For the same compound, the “increase in the level of caspase-9” value in the assay with caspase-9 (vs control) came to 7.622 fold. Also, on VEGFR-2 (KDR), the IC50 was 200 ± 20 nM. In the assay on caspase-8 (mean ± SD of three experiments, control 0.377 ± 0.03), this compound showed a Caspase-8 of 0.704 ± 0.06 ng/mL. For the same compound, the “increase in the level of caspase-8” value with caspase-8 (vs control) is listed as 1.867 fold. In the assay on HCT-15 cells [1] (IC50 concentration, 24 h, control 0.13), the “Apoptosis Late” value is listed as 22.12%. The “Apoptosis Early” value in the assay on HCT-15 cells [1] (IC50 concentration, 24 h, control 0.34) stood at 2.66%. In the assay with HCT-15 cells [1] (IC50 concentration, 24 h, control 0.47), the “Apoptosis Total” value was 24.78%. The Necrosis in the assay on HCT-15 cells [1] (IC50 concentration, 24 h, control 0.99) is 12.51%. In addition, the “increase in the total apoptosis percentage” value with HCT-15 cells [1] (vs control (DMSO)) turned out to be 52.72 fold. The same compound registered a Wound closure percentage in the assay with HUVECs of 51.85 ± 2.92%. The compound also came in with a Caspase-3 with caspase-3 (mean ± SD of three experiments, control 0.073 ± 0.01) of 0.570 ± 0.01 ng/mL. Further, the “increase in the level of caspase-3” value with caspase-3 (vs control) was 7.808 fold. Further, in the assay on HCT-15 cells [2] (6.62 µM, vs control (DMSO)), the “augmentation in the proportion of cells in the G0-G1 phase” value worked out at 1.32 fold, the “decline in the cell population at the G2/M phase” value was found to be 65.61% and the “decline in the cell population at the S phase” value is given as 16.88%. For the same compound, the “%Pre-G1” value in the assay with HCT-15 cells [2] (IC50 concentration (6.62 µM), 24 h, control 1.46) is reported as 37.29%. The “%G2/M” value with HCT-15 cells [2] (IC50 concentration (6.62 µM), 24 h, control 6.95) came to 2.39%. For the same compound, the “%G0–G1” value with HCT-15 cells [2] (IC50 concentration (6.62 µM), 24 h, control 41.69) is 54.92%. Besides, in the assay with HCT-15 cells [2] (IC50 concentration (6.62 µM), 24 h, control 51.36), the “%S” value was determined as 42.69%.

Values taken from PMC8079033, “Design, synthesis, anticancer evaluation, and molecular modelling studies of novel tolmetin derivatives as potential VEGFR-2 inhibitors and apoptosis inducers” (Journal of Enzyme Inhibition and Medicinal Chemistry, 2021).
